Assay results from ChEMBL document CHEMBL3714716, “Modulators of the relaxin receptor 1” (2015).
Active and inactive are the calls of the source. The calls are words filed in the database; no cut-off is given here.

Legend:
[1] = target: T1, Relaxin receptor 1 (Homo sapiens) (UniProt Q9HBX9); test: Agonist activity at RXFP1 receptor (unknown origin) expressed in HEK293 cells assessed as stimulation of cAMP production incubated for 30 mins by TR-FRET based HTRF assay relative to forskolin; type: functional, cell-based
T1 sequence (whole entry): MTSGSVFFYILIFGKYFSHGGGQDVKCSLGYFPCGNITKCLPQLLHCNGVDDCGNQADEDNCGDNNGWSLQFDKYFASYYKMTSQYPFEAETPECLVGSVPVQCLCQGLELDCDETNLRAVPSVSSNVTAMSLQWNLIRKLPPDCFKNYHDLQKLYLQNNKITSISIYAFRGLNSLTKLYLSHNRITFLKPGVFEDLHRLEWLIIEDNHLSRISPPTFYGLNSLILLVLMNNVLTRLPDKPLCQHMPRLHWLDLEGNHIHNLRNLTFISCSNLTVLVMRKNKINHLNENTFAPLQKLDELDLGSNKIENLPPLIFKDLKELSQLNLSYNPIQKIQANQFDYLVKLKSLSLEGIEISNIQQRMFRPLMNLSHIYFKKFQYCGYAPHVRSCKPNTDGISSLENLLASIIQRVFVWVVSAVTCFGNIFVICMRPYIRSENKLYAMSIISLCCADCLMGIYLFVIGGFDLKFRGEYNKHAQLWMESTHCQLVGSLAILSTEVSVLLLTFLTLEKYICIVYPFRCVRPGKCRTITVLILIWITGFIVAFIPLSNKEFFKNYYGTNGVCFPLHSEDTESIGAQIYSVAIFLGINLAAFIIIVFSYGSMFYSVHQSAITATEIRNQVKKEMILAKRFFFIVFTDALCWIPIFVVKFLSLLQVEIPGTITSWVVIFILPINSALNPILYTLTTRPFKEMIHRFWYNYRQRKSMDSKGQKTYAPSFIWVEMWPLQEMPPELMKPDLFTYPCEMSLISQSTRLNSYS

Relaxin receptor 1 = target: T2, Relaxin receptor 1 (Homo sapiens, UniProt Q9HBX9); test: Agonist activity at RXFP1 receptor (unknown origin) expressed in HEK293 cells assessed as stimulation of cAMP production incubated for 30 mins by TR-FRET based HTRF assay; type: functional, cell-based
T2 sequence (Q9HBX9 whole entry): T1 sequence (whole entry)

Row | SMILES | %max [1] | AC50 (Relaxin receptor 1; read-out: AC50) [µM] | AC50 (Relaxin receptor 1; hek293)
1 | COc1cccc(NC(=O)c2ccccc2NC(=O)C2CCCCC2)c1 | 74% | 37.4 | –
2 | CC(C)c1cccc(NC(=O)c2ccccc2NC(=O)C2CCCCC2)c1 | 66% | 5.29 | –
3 | CCOc1ccccc1C(=O)Nc1ccncc1C(=O)Nc1cccc(S(=O)(=O)C(F)(F)F)c1 | 97% | 0.747 | –
4 | O=C(Nc1ccc([N+](=O)[O-])cc1)c1ccccc1NC(=O)C1CCCCC1 | 56% | 74.7 | –
5 | O=C(Nc1cccc(C(F)(F)F)c1)c1ccccc1-c1ccccc1OCc1ccccc1 | inactive | – | Not Active
6 | O=C(Nc1ccccc1)c1ccccc1NC(=O)C1CCCCC1 | 57% | 94 | –
7 | O=C(Nc1cccc(C(F)(F)F)c1)c1cccc(NC(=O)C2CCCCC2)c1 | inactive | – | Not Active
8 | O=C(Nc1ccccc1F)c1ccccc1NC(=O)C1CCCCC1 | inactive | – | Not Active
9 | CCOc1ccccc1C(=O)NCCC(=O)Nc1cccc(S(=O)(=O)C(F)(F)F)c1 | 90% | 4.71 | –
10 | CCOc1ccccc1S(=O)(=O)Nc1ccccc1C(=O)Nc1cccc(S(=O)(=O)C(F)(F)F)c1 | inactive | – | –
11 | O=C(Nc1cccc(I)c1)c1ccccc1NC(=O)C1CCCCC1 | 84% | 2.97 | –
12 | CCOc1ccccc1-c1nc2c(C(=O)Nc3cccc(S(=O)(=O)C(F)(F)F)c3)cccc2[nH]1 | inactive | – | Not Active
13 | Cc1ccccc1NC(=O)c1ccccc1NC(=O)C1CCCCC1 | inactive | – | –
14 | O=C(Nc1cccc(-c2cccs2)c1)c1ccccc1NC(=O)C1CCCCC1 | 31% | 471 | –
15 | O=C(Nc1cccc(C(F)(F)F)c1)c1ccccc1NCC1CCCCC1 | 77% | 5.93 | –
16 | CCOc1ccccc1C(=O)Nc1cccc2c1C(=O)N(c1cccc(S(=O)(=O)C(F)(F)F)c1)C2 | inactive | – | Not Active
17 | O=C(Nc1ccc2c(c1)CCC2)c1ccccc1NC(=O)C1CCCCC1 | 46% | 9.4 | –
18 | O=C(NCc1ccco1)c1ccccc1NC(=O)C1CCCCC1 | inactive | – | Not Active

Row | SMILES | %max [1] | AC50 (Relaxin receptor 1; read-out: AC50) [µM] | AC50 (Relaxin receptor 1; hek293)
19 | CCOc1ccccc1C(=O)Nc1cccnc1C(=O)Nc1cccc(S(=O)(=O)C(F)(F)F)c1 | 73% | 4.71 | –
20 | O=C(Nc1ccccc1Br)c1ccccc1NC(=O)C1CCCCC1 | inactive | – | Not Active
21 | O=C(Nc1ccc2c(c1)OCO2)c1ccccc1NC(=O)C1CCCCC1 | 58% | 74.7 | –
22 | COCCNc1ccccc1C(=O)Nc1cccc(C(F)(F)F)c1 | 63% | 59.3 | –
23 | O=C(Nc1cccc(S(=O)(=O)C(F)(F)F)c1)c1ccccc1NC(=O)C1CCCCC1 | 87% | 1.06 | –
24 | CCOc1ccccc1-c1nc2ccccc2c2nc3ccc(C(F)(F)F)cc3n12 | – | 188 | –
25 | CC(=O)Nc1ccccc1C(=O)Nc1cccc(C(F)(F)F)c1 | 51% | 74.7 | –
26 | O=C(Nc1ccc(F)cc1)c1ccccc1NC(=O)C1CCCCC1 | 74% | 37.4 | –
27 | CCOc1ccccc1C(=O)Nc1ccccc1C(=O)Nc1cncc(I)c1 | 72% | – | –
28 | O=C(Nc1cccc(-c2ccc(C(F)(F)F)cc2)c1)c1ccccc1NC(=O)C1CCCCC1 | inactive | – | Not Active
29 | CCOc1ccccc1C(=O)Nc1ncccc1C(=O)Nc1cccc(S(=O)(=O)C(F)(F)F)c1 | 98% | 1.67 | –
30 | CC(C)(C)c1cccc(NC(=O)c2ccccc2NC(=O)C2CCCCC2)c1 | 70% | 2.65 | –
31 | Cc1ccc(NC(=O)c2ccccc2NC(=O)C2CCCCC2)cc1 | 32% | 187 | –
32 | O=C(NCc1ccccc1C(F)(F)F)c1ccccc1NC(=O)C1CCCCC1 | inactive | – | Not Active
33 | CC(C)(C)c1ccc(NC(=O)c2ccccc2NC(=O)C2CCCCC2)cc1 | inactive | – | Not Active
34 | CSc1cccc(NC(=O)c2ccccc2NC(=O)C2CCCCC2)c1 | 84% | 5.29 | –
35 | O=C(NCc1cccc(C(F)(F)F)c1)c1ccccc1NC(=O)C1CCCCC1 | inactive | – | –
36 | O=C(Nc1cccc(-c2ccccc2)c1)c1ccccc1NC(=O)C1CCCCC1 | inactive | – | –

The remaining lines, values ahead:

Row | %max [1] | AC50 (Relaxin receptor 1; read-out: AC50) [µM] | AC50 (Relaxin receptor 1; hek293) | SMILES
37 | 30% | 188 | – | O=C(Nc1cccc(C(F)(F)F)c1)c1ccccc1NC(=O)c1ccccc1[N+](=O)[O-]
38 | 96% | 0.747 | – | CCOc1ccccc1C(=O)Nc1ccccc1C(=O)Nc1cccc(I)c1
39 | 96% | 1.67 | – | N#Cc1ccc(C(=O)Nc2ccccc2C(=O)Nc2cccc(C(F)(F)F)c2)cc1
40 | inactive | – | Not Active | O=C(Nc1cccc(C(F)(F)F)c1)c1ccccc1OCCN1CCCCC1
41 | 85% | 14.9 | – | O=C(Nc1ccccc1C(=O)Nc1cccc(C(F)(F)F)c1)c1ccc2ccccc2c1
42 | 98% | 4.71 | – | O=C(Nc1cccc(C(F)(F)F)c1)c1ccccc1NC(=O)c1ccccc1OCCN1CCOCC1
43 | inactive | – | Not Active | COc1ccccc1C(=O)Nc1ccccc1C(=O)Nc1cccc(-c2cccs2)c1
44 | 93% | 4.2 | – | O=C(Nc1ccccc1C(=O)Nc1cccc(C(F)(F)F)c1)c1ccc(Br)cc1
45 | 97% | 1.67 | – | O=C(Nc1ccccc1C(=O)Nc1cccc(C(F)(F)F)c1)c1cccc(Br)c1
46 | 77% | 2.65 | – | CCOc1ccccc1C(=O)Nc1ccccc1CNc1cccc(S(=O)(=O)C(F)(F)F)c1
47 | inactive | – | Not Active | O=C(Nc1cccc(C(F)(F)F)c1)c1ccccc1-c1ccccc1
48 | inactive | – | Not Active | CCOc1ccccc1C(=O)Nc1ccccc1C(=O)Nc1cccc(C(=N)N)c1
49 | 94% | 5.29 | – | CCCCC(=O)Nc1ccccc1C(=O)Nc1cccc(C(F)(F)F)c1
50 | inactive | – | Not Active | O=C(Nc1cccc(C(F)(F)F)c1)c1ccccc1NC(=O)c1ccccc1OCCN1CCNCC1
51 | 77% | 4.71 | – | COc1ccccc1Nc1ccccc1C(=O)Nc1cccc(C(F)(F)F)c1
52 | 42% | 7.47 | – | COc1cccc(OC)c1C(=O)Nc1ccccc1C(=O)Nc1cccc(C(F)(F)F)c1
53 | 85% | 4.2 | – | O=C(Nc1ccccc1C(=O)Nc1cccc(S(=O)(=O)C(F)(F)F)c1)c1ccccc1I
54 | 94% | 1.33 | – | CC(C)(C)OC(=O)N1CCN(CCOc2ccccc2C(=O)Nc2ccccc2C(=O)Nc2cccc(C(F)(F)F)c2)CC1
55 | 84% | 2.11 | – | C/C=C/c1cccc(NC(=O)c2ccccc2NC(=O)c2ccccc2OCC)c1

Row | %max [1] | AC50 (Relaxin receptor 1; read-out: AC50) [µM] | AC50 (Relaxin receptor 1; hek293) | SMILES
56 | inactive | – | – | O=C(Nc1cccc(-c2cccc(C(F)(F)F)c2)c1)c1ccccc1NC(=O)C1CCCCC1
57 | inactive | – | Not Active | COc1ccccc1-c1ccccc1C(=O)Nc1cccc(C(F)(F)F)c1
58 | 64% | 74.7 | – | CCOc1ccccc1C(=O)Nc1ccccc1C(=O)Nc1ccncc1
59 | 95% | 0.529 | – | CCSc1ccccc1C(=O)Nc1ccccc1C(=O)Nc1cccc(S(=O)(=O)C(F)(F)F)c1
60 | 81% | 5.93 | – | O=C(Nc1cccc(C(F)(F)F)c1)c1ccccc1NC(=O)c1cccc2ccccc12
61 | 85% | 4.71 | – | Cc1ccc(C(=O)Nc2ccccc2C(=O)Nc2cccc(C(F)(F)F)c2)cc1
62 | 71% | 9.4 | – | COc1ccc(C(=O)Nc2ccccc2C(=O)Nc2cccc(C(F)(F)F)c2)cc1
63 | inactive | – | – | COc1ccccc1C(=O)N(C)c1ccccc1C(=O)Nc1cccc(C(F)(F)F)c1
64 | 96% | 1.88 | – | O=C(Nc1ccccc1C(=O)Nc1cccc(C(F)(F)F)c1)c1cccc(Cl)c1
65 | 84% | 4.2 | – | O=C(Nc1cccc(C(F)(F)F)c1)c1ccccc1Nc1ccccc1
66 | 80% | 7.47 | – | O=C(Nc1ccccc1C(=O)Nc1cccc(C(F)(F)F)c1)c1ccccc1I
67 | 57% | 59.3 | – | COc1ccccc1CNc1ccccc1C(=O)Nc1cccc(C(F)(F)F)c1
68 | 96% | 1.18 | – | O=C(Nc1cccc(C(F)(F)F)c1)c1ccccc1NC(=O)c1ccccc1OC(F)(F)F
69 | 37% | 149 | – | CCOc1ccccc1C(=O)Nc1ccccc1C(=O)Nc1cccnc1
70 | 93% | 1.06 | – | CCOc1ccccc1C(=O)Nc1ccccc1C(=O)Nc1cccc(C(C)(C)C)c1
71 | inactive | – | Not Active | CN(C)CCOc1ccccc1C(=O)Nc1cccc(C(F)(F)F)c1
72 | 91% | – | – | C/C=C\c1cccc(NC(=O)c2ccccc2NC(=O)c2ccccc2OCC)c1
73 | inactive | – | – | COc1ccccc1C(=O)Nc1cccc(C(=O)Nc2cccc(C(F)(F)F)c2)c1
